Test system: GNE myopathy patients
Assay: Plasma T/ST ratio (T-antigen to monosialylated ST-antigen) by LC-MS/MS in treated GNE myopathy patients
Format: in vivo, human
Description: The quantification of the T/ST ratio was carried out using the O-glycan quantification methods disclosed in Liu et al., Mol Genet Metab 106, 442-454 (2012). Briefly, O-linked glycans from human serum or plasma total glycoproteins were released by sodium hydroxide with sodium borohydrate and desalted by ion-exchange column and then permethylated before the quantity of T-antigen and monosialyl ST-antigen was measured using LC-MS/MS method. Plasma samples from 40 normal controls were used to establish the normal range for the T/ST ratio at <0.056. A cut-off of 0.06 was used to diagnose hyposialylation of O-linked protein glycosylation in human plasma or serum.
O-glycans were released from plasma glycoproteins and prepared for analysis essentially as described by Carlson (J Biol Chem 243: 616-626, 1968; Liu et al. Mol Genet Metab 2012, 106, 442-454 (2012)), with modifications as described. An internal standard (1250 pmol raffinose in 5 μL) was added to 10 μL of plasma and […] for a final volume of 100 μL. Next, 100 μL of freshly prepared 2M […] in 0.1M sodium hydroxide was added to denature the serum proteins and release the O-glycans; the mixture was incubated at 45° C. for 16 hours to ensure complete reaction. The reaction was neutralized by drop wise addition of 1.6 mL of a 0.25M acetic acid-methanol solution, and the O-glycans were extracted in methanol. Finally, the extracted glycans were desalted through ion-exchange AG 50W-X8 resin (Bio-Rad, Hercules, Calif.) following the manufacture's instruction and lyophilized overnight. The dried samples were dissolved in DMSO for permethylation.
Both N-glycans and O-glycans were permethylated as previously described with minor modification (Guillard et al. Clin Chem 57, 593-602 (2011)). Briefly, four NaOH pellets (approximately 375 mg) were crushed in 10 ml anhydrous DMSO, 0.5 μL water, 0.4 ml of this slurry and 0.1 ml CH3I were added to the dried glycans and the mixture was shaken vigorously for one hour. The mixture was extracted five times sequentially with a mixture of 200 μL water and 600 μL chloroform. […]

SMILES	T/ST ratio (GNE myopathy patient SIA79 self-administering off-label ManNAc, cut-off 0.06)	T/ST ratio (GNE myopathy patient NH00016, after three months without medication (after sialic acid))	T/ST ratio (GNE myopathy patient NH00016, had received sialic acid one month before the test)
CC(=O)N[C@H]1[C@@H](O)[C@H](O)[C@@H](CO)O[C@H]1O [ManNAc, N-acetyl-D-mannosamine]	normal range	–	–
CC(=O)N[C@@H]1C(O)C[C@](O)(C(=O)O)OC1[C@H](O)[C@H](O)CO (stereo in doubt) [sialic acid, 5-N-acetylneuraminic acid]	–	0.7	0.05

— patent US20160025717A1, “HYPOSIALYLATION DISORDERS” (THE UNITED STATES OF AMERICA, AS REPRESENTED BY THE …, priority 2013, published 2016)
